Measurements from PubChem BioAssay (NCI).
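Test compounds were applied to cells in 96-well plates for 48 hours at 5 doses. GI50 marks 50% less growth. Definition used: TGI = concentration required for complete inhibition of growth.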

Experiments:
Assay in all cases: NCI-60 cell line screen, 48 h
OVCAR-8 ovarian = tested on: OVCAR-8 ovarian
RPMI-8226 leukemia = tested on: RPMI-8226 leukemia
BT-549 breast = tested on: BT-549 breast
SK-MEL-2 melanoma = tested on: SK-MEL-2 melanoma
SK-OV-3 ovarian = tested on: SK-OV-3 ovarian
ACHN renal = tested on: ACHN renal
OVCAR-5 ovarian = tested on: OVCAR-5 ovarian
TK-10 renal = tested on: TK-10 renal
NCI-H522 lung = tested on: NCI-H522 lung
MDA-MB-435 = tested on: MDA-MB-435
HCC-2998 colon = tested on: HCC-2998 colon
PC-3 prostate = tested on: PC-3 prostate
OVCAR-3 ovarian = tested on: OVCAR-3 ovarian
MDA-MB-231 breast = tested on: MDA-MB-231 breast
CAKI-1 renal = tested on: CAKI-1 renal
UACC-62 melanoma = tested on: UACC-62 melanoma
MCF7 breast = tested on: MCF7 breast
A549 NSCLC = tested on: A549 NSCLC
UACC-257 melanoma = tested on: UACC-257 melanoma
HL-60(TB) leukemia = tested on: HL-60(TB) leukemia
MOLT-4 leukemia = tested on: MOLT-4 leukemia
SK-MEL-28 melanoma = tested on: SK-MEL-28 melanoma
RXF 393 renal = tested on: RXF 393 renal
HS 578T breast = tested on: HS 578T breast
SW-620 colon = tested on: SW-620 colon
NCI-H23 lung = tested on: NCI-H23 lung
DU-145 prostate = tested on: DU-145 prostate
K-562 leukemia = tested on: K-562 leukemia
NCI-H460 lung = tested on: NCI-H460 lung
HOP-92 NSCLC = tested on: HOP-92 NSCLC
KM12 colon = tested on: KM12 colon
COLO 205 colon = tested on: COLO 205 colon
HOP-62 NSCLC = tested on: HOP-62 NSCLC
MALME-3M melanoma = tested on: MALME-3M melanoma
SNB-19 CNS = tested on: SNB-19 CNS
SF-268 CNS = tested on: SF-268 CNS
T-47D breast = tested on: T-47D breast
OVCAR-4 ovarian = tested on: OVCAR-4 ovarian
HT29 colon = tested on: HT29 colon
HCT-116 colon = tested on: HCT-116 colon
EKVX NSCLC = tested on: EKVX NSCLC
NCI/ADR-RES ovarian = tested on: NCI/ADR-RES ovarian
UO-31 renal = tested on: UO-31 renal
LOX IMVI melanoma = tested on: LOX IMVI melanoma
U251 CNS = tested on: U251 CNS
SR leukemia = tested on: SR leukemia
NCI-H226 lung = tested on: NCI-H226 lung
HCT-15 colon = tested on: HCT-15 colon
SNB-75 CNS = tested on: SNB-75 CNS
SK-MEL-5 melanoma = tested on: SK-MEL-5 melanoma
IGROV1 ovarian = tested on: IGROV1 ovarian
SN12C renal = tested on: SN12C renal
CCRF-CEM leukemia = tested on: CCRF-CEM leukemia
786-0 renal = tested on: 786-0 renal
SF-295 CNS = tested on: SF-295 CNS
M14 melanoma = tested on: M14 melanoma
SF-539 CNS = tested on: SF-539 CNS
A498 renal = tested on: A498 renal

c1ccc(CSc2nc(N3CCCCC3)c3cn[nH]c3n2)cc1
TGI (OVCAR-8 ovarian): 74.3 µM | TGI (RPMI-8226 leukemia): 72.8 µM | TGI (BT-549 breast): 34.6 µM | TGI (SK-MEL-2 melanoma): 32.5 µM | TGI (SK-OV-3 ovarian): > 100 µM | TGI (ACHN renal): 94.7 µM | TGI (OVCAR-5 ovarian): > 100 µM | TGI (TK-10 renal): 70.2 µM | TGI (NCI-H522 lung): 36.4 µM | TGI (MDA-MB-435): 47.9 µM | TGI (HCC-2998 colon): 45 µM | TGI (PC-3 prostate): 51 µM | TGI (OVCAR-3 ovarian): 69.1 µM | TGI (MDA-MB-231 breast): 36.8 µM | TGI (CAKI-1 renal): > 100 µM | TGI (UACC-62 melanoma): 32 µM | TGI (MCF7 breast): 72.4 µM | TGI (A549 NSCLC): > 100 µM | TGI (UACC-257 melanoma): 35.4 µM | TGI (HL-60(TB) leukemia): > 100 µM | TGI (MOLT-4 leukemia): > 100 µM | TGI (SK-MEL-28 melanoma): 41.3 µM | TGI (RXF 393 renal): 35.4 µM | TGI (HS 578T breast): 43.9 µM | TGI (SW-620 colon): 44.5 µM | TGI (NCI-H23 lung): 66.5 µM | TGI (DU-145 prostate): > 100 µM | TGI (K-562 leukemia): > 100 µM | TGI (NCI-H460 lung): 64.5 µM | TGI (HOP-92 NSCLC): 72.8 µM | TGI (KM12 colon): 35.4 µM | TGI (COLO 205 colon): 62.4 µM | TGI (HOP-62 NSCLC): 43.3 µM | TGI (MALME-3M melanoma): 37.3 µM | TGI (SNB-19 CNS): 79 µM | TGI (SF-268 CNS): 61.3 µM | TGI (T-47D breast): > 100 µM | TGI (OVCAR-4 ovarian): > 100 µM | TGI (HT29 colon): > 100 µM | TGI (HCT-116 colon): 44.1 µM | TGI (EKVX NSCLC): 65.3 µM | TGI (NCI/ADR-RES ovarian): > 100 µM | TGI (UO-31 renal): 42.8 µM | TGI (LOX IMVI melanoma): 49.1 µM | TGI (U251 CNS): 40.7 µM | TGI (SR leukemia): > 100 µM | TGI (NCI-H226 lung): 44.9 µM | TGI (HCT-15 colon): > 100 µM | TGI (SNB-75 CNS): 46.8 µM | TGI (SK-MEL-5 melanoma): 31 µM | TGI (IGROV1 ovarian): 41.8 µM | TGI (SN12C renal): 42 µM | TGI (CCRF-CEM leukemia): > 100 µM | TGI (786-0 renal): 79.8 µM | TGI (SF-295 CNS): 63.7 µM | TGI (M14 melanoma): 37 µM | TGI (SF-539 CNS): 34.9 µM | TGI (A498 renal): 34.3 µM

COc1ccc(C2CC(c3cc(Cl)c(C)cc3O)=NN2c2ccc(S(N)(=O)=O)cc2)cc1OC (centres undefined)
GI50 (OVCAR-8 ovarian): 3.39 µM | TGI (OVCAR-8 ovarian): 17.9 µM | GI50 (RPMI-8226 leukemia): 4.1 µM | TGI (RPMI-8226 leukemia): > 100 µM | GI50 (BT-549 breast): 3.03 µM | TGI (BT-549 breast): 13.4 µM | GI50 (SK-MEL-2 melanoma): 5.87 µM | TGI (SK-MEL-2 melanoma): 32.7 µM | GI50 (SK-OV-3 ovarian): 4.51 µM | TGI (SK-OV-3 ovarian): 38.3 µM | GI50 (ACHN renal): 3.15 µM | TGI (ACHN renal): 12.2 µM | GI50 (OVCAR-5 ovarian): 2.25 µM | TGI (OVCAR-5 ovarian): 6.36 µM | GI50 (TK-10 renal): 3.97 µM | TGI (TK-10 renal): 18.4 µM | GI50 (NCI-H522 lung): 2.95 µM | TGI (NCI-H522 lung): 9.61 µM | GI50 (MDA-MB-435): 3.97 µM | TGI (MDA-MB-435): 24 µM | GI50 (HCC-2998 colon): 2.72 µM | TGI (HCC-2998 colon): 7.25 µM | GI50 (PC-3 prostate): 2.61 µM | TGI (PC-3 prostate): 13.7 µM | GI50 (OVCAR-3 ovarian): 3.37 µM | TGI (OVCAR-3 ovarian): 9.8 µM | GI50 (MDA-MB-231 breast): 3.81 µM | TGI (MDA-MB-231 breast): 12.5 µM | GI50 (CAKI-1 renal): 2.78 µM | TGI (CAKI-1 renal): > 100 µM | GI50 (UACC-62 melanoma): 3.13 µM | TGI (UACC-62 melanoma): 12.9 µM | GI50 (MCF7 breast): 3.07 µM | TGI (MCF7 breast): 13.6 µM | GI50 (A549 NSCLC): 3.54 µM | TGI (A549 NSCLC): 19.7 µM | GI50 (UACC-257 melanoma): 4.22 µM | TGI (UACC-257 melanoma): 19.7 µM | GI50 (HL-60(TB) leukemia): 3.42 µM | TGI (HL-60(TB) leukemia): > 100 µM | GI50 (MOLT-4 leukemia): 5.29 µM | TGI (MOLT-4 leukemia): > 100 µM | GI50 (SK-MEL-28 melanoma): 4.29 µM | TGI (SK-MEL-28 melanoma): 17.7 µM | GI50 (RXF 393 renal): 2.88 µM | TGI (RXF 393 renal): 7.52 µM | GI50 (HS 578T breast): 3.29 µM | TGI (HS 578T breast): 34.3 µM | GI50 (SW-620 colon): 4.08 µM | TGI (SW-620 colon): 26.6 µM | GI50 (NCI-H23 lung): 3.11 µM | TGI (NCI-H23 lung): 13.6 µM | GI50 (DU-145 prostate): 4.49 µM | TGI (DU-145 prostate): 21.7 µM | GI50 (K-562 leukemia): 3.18 µM | TGI (K-562 leukemia): > 100 µM | GI50 (NCI-H460 lung): 2.5 µM | TGI (NCI-H460 lung): 5.85 µM | GI50 (HOP-92 NSCLC): 1.81 µM | TGI (HOP-92 NSCLC): 7.42 µM | GI50 (KM12 colon): 3.07 µM | TGI (KM12 colon): 8.77 µM | GI50 (COLO 205 colon): 1.93 µM | TGI (COLO 205 colon): 3.41 µM | GI50 (HOP-62 NSCLC): 3.92 µM | TGI (HOP-62 NSCLC): 14.1 µM | GI50 (MALME-3M melanoma): 3.65 µM | TGI (MALME-3M melanoma): 24.6 µM | GI50 (SNB-19 CNS): 5.53 µM | TGI (SNB-19 CNS): 89.3 µM | GI50 (SF-268 CNS): 4.74 µM | TGI (SF-268 CNS): > 100 µM | GI50 (T-47D breast): 3.1 µM | TGI (T-47D breast): 13.3 µM | GI50 (OVCAR-4 ovarian): 4.18 µM | TGI (OVCAR-4 ovarian): > 100 µM | GI50 (HT29 colon): 2.24 µM | TGI (HT29 colon): 6.48 µM | GI50 (HCT-116 colon): 1.72 µM | TGI (HCT-116 colon): 4.36 µM | GI50 (EKVX NSCLC): 4.15 µM | TGI (EKVX NSCLC): > 100 µM | GI50 (NCI/ADR-RES ovarian): 3.39 µM | TGI (NCI/ADR-RES ovarian): 14.1 µM | GI50 (UO-31 renal): 3.3 µM | TGI (UO-31 renal): > 100 µM | GI50 (LOX IMVI melanoma): 3.35 µM | TGI (LOX IMVI melanoma): 11 µM | GI50 (U251 CNS): 3.71 µM | TGI (U251 CNS): 14 µM | GI50 (SR leukemia): 2.82 µM | TGI (SR leukemia): > 100 µM | GI50 (NCI-H226 lung): 5.62 µM | TGI (NCI-H226 lung): 23.1 µM | GI50 (HCT-15 colon): 3.32 µM | TGI (HCT-15 colon): 20.2 µM | GI50 (SNB-75 CNS): 2.7 µM | TGI (SNB-75 CNS): 97.2 µM | GI50 (SK-MEL-5 melanoma): 4.28 µM | TGI (SK-MEL-5 melanoma): 15.2 µM | GI50 (IGROV1 ovarian): 2.34 µM | TGI (IGROV1 ovarian): 5.46 µM | GI50 (SN12C renal): 3.7 µM | TGI (SN12C renal): 30 µM | GI50 (CCRF-CEM leukemia): 5.35 µM | TGI (CCRF-CEM leukemia): > 100 µM | GI50 (786-0 renal): 2.37 µM | TGI (786-0 renal): 5.04 µM | GI50 (SF-295 CNS): 2.7 µM | TGI (SF-295 CNS): 6.24 µM | GI50 (M14 melanoma): 2.61 µM | TGI (M14 melanoma): 7.2 µM | GI50 (SF-539 CNS): 2.1 µM | TGI (SF-539 CNS): 4.75 µM | GI50 (A498 renal): 3.98 µM | TGI (A498 renal): 24.7 µM
